# Reference: paper doi:10.1101/2025.03.31.646301v1, “Discovery of Tankyrase scaffolding inhibitor specifically targeting the ARC4 peptide binding domain” (biorxiv, 2025)
# Tests used:
# TNKS1 ARC2-3 = target: T1, TNKS1 ARC2-3 (Homo sapiens, UniProt O95271); assay: FRET displacement of YFP-REAGDGEE peptide from CFP-ARC; format: binding
# T1 construct: gene TNKS; ankyrin repeat clusters 2-3, 6xHis-mCerulean (CFP) fusion, E. coli
# T1 sequence (O95271 336-649 limits assumed): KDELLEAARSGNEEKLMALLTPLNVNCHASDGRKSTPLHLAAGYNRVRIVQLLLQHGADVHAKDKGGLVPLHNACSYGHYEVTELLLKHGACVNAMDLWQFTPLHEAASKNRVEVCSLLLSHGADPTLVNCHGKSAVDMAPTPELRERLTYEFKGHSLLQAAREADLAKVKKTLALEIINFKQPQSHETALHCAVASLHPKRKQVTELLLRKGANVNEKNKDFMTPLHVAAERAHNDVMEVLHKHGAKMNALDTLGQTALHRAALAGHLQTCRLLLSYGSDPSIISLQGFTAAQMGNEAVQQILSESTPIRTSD
# Text: FRET displacement of YFP-REAGDGEE peptide from CFP-ARC on TNKS1 ARC2-3
# TNKS2 ARC2 = target: T2, TNKS2 ARC2 (Homo sapiens, UniProt Q9H2K2); assay: as above; format: binding
# T2 construct: ankyrin repeat cluster 2 domain, 6xHis-mCerulean (CFP) fusion, E. coli
# T2 sequence (Q9H2K2 173-329 limits assumed): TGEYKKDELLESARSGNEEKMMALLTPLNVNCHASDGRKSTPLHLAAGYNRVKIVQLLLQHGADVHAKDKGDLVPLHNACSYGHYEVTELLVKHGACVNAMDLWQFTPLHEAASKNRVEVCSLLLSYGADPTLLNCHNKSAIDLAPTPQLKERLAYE
# Text: FRET displacement of YFP-REAGDGEE peptide from CFP-ARC on TNKS2 ARC2
# TNKS1 ARC1 = target: T3, TNKS1 ARC1 (Homo sapiens, UniProt O95271); assay: as above; format: binding
# T3 construct: gene TNKS; ankyrin repeat cluster 1 domain, 6xHis-mCerulean (CFP) fusion, E. coli
# T3 sequence (O95271 173-336 limits assumed): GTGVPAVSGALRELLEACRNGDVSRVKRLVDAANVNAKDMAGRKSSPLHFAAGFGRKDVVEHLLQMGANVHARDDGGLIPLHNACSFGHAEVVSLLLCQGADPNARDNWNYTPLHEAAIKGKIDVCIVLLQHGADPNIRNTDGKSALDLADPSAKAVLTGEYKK
# Text: FRET displacement of YFP-REAGDGEE peptide from CFP-ARC on TNKS1 ARC1
# TNKS1 ARC5 = target: T4, TNKS1 ARC5 (Homo sapiens, UniProt O95271); assay: as above; format: binding
# T4 construct: gene TNKS; ankyrin repeat cluster 5 domain, 6xHis-mCerulean (CFP) fusion, E. coli
# T4 sequence (O95271 806-966 limits assumed): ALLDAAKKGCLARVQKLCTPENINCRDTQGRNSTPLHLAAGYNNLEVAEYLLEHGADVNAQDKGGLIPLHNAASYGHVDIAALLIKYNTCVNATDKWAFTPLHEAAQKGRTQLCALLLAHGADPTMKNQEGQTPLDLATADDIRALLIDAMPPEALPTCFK
# Text: FRET displacement of YFP-REAGDGEE peptide from CFP-ARC on TNKS1 ARC5
# TNKS2 ARC4 [1] = target: T5, TNKS2 ARC4 (Homo sapiens, UniProt Q9H2K2); assay: X-ray co-crystal structure; format: binding; conditions: residues 487-649, tag-free, pH 4.2; S enantiomer in TBM pocket, R enantiomer at crystal contacts
# T5 construct: ankyrin repeat cluster 4 domain; FRET: 6xHis-mCerulean (CFP) fusion; DSF, NMR, crystal: MBP and His tag cleaved by TEV, residues 487-649 printed for crystal; E. coli BL21(DE3)
# T5 sequence (Q9H2K2 487-649): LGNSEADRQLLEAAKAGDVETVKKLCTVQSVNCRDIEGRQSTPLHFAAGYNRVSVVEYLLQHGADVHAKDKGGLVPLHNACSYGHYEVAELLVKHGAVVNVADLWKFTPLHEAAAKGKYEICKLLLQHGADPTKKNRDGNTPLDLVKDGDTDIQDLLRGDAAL
# TNKS1 ARC4 = target: T6, TNKS1 ARC4 (Homo sapiens, UniProt O95271); assay: FRET displacement of YFP-REAGDGEE peptide from CFP-ARC; format: binding
# T6 construct: gene TNKS; ankyrin repeat cluster 4 domain, 6xHis-mCerulean (CFP) fusion, E. coli
# T6 sequence (O95271 649-806 limits assumed): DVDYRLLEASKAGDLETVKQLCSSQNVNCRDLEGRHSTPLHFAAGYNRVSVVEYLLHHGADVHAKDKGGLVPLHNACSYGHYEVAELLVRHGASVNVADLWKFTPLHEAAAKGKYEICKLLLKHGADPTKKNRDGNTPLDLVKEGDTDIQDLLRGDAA
# Text: FRET displacement of YFP-REAGDGEE peptide from CFP-ARC on TNKS1 ARC4
# TNKS2 ARC4 [2] = target: T5, TNKS2 ARC4; set-up: DSF thermal shift of TNKS2 ARC4, stabilization over DMSO control; conditions: binder
# Text: Given the notable stabilization of the pyrrolone-based compounds from the Commercials Diversity collection, we decided to focus on their common scaffold for compound optimization. Pyrrolone is indeed a versatile moiety that is largely employed for the design of compounds with a variety of biological effects.[55] The nine primary hits were acquired from commercial suppliers, they underwent quality control, additional DSF validation and determination of potency through FRET-based IC50 measurements (Table 1). All the tested compounds include a benzodioxane moiety (R[1]), a [compound left out] group with substitutions in the para position (R[2]), and an R[3] group with an aliphatic character and a tertiary amine. […] In addition, all molecules, except for 7, have IC50 values below 100 µM. Among the nine molecules, 1 performed the best in terms of stabilization of TNKS2 ARC4 and potency. […] In the same position, the presence of a hydrophobic methyl group (3, 4), other halogen substituents (5) and alkoxy groups (6–9) is also tolerated, even if not optimal. […] A SAR investigation was conducted with purchased and synthesized analogues of 1 through FRET-based potency measurements and DSF assay with TNKS2 ARC4 (Table 2, Table S2). All the compounds commercially acquired underwent quality control. […] Changes to the length of the aliphatic chain at R[3] greatly impacts both potency and protein stabilization. […] The diethylamino-based substituent at R[3] […] Compounds 25 and 26 further indicate that the presence of tertiary amine at R[3] is not necessary to achieve binding. […] 5 Figure S2. DSF assay results for validation of primary hits identified in the EU-OPENSCREEN Commercials Diversity Library. (A) and (B) show DSF assay validation measurements of TNKS2 ARC4 with primary hits from the Commercial Diversity Library. Compounds are tested at 100 μM. They are named after their EU-OPENSCREEN identity codes and the identities are available for consultation on ECBD. 1,2 (A) and (B) show results from two independent experiments. For each experiment, each compound was tested with a single measurement, while controls (TNKS2 ARC4 with 100 μM optimized peptide, TNKS2 ARC4 with 100 μM DMSO) are studied in at least four replicates and errors are shown. Moreover, stabilization over the control (TNKS2 ARC4 with DMSO) is indicated (ΔTm °C). […] It was not possible to measure the melting curve of TNKS2 ARC4 in presence of EOS21552, EOS54043, EOS54043.
# TNKS2 ARC4 [3] = target: T5, TNKS2 ARC4; assay: FRET displacement of YFP-REAGDGEE peptide from CFP-ARC; format: binding
# TNKS2 ARC5 = target: T7, TNKS2 ARC5 (Homo sapiens, UniProt Q9H2K2); assay: as above; format: binding
# T7 construct: ankyrin repeat cluster 5 domain, 6xHis-mCerulean (CFP) fusion, E. coli
# T7 sequence (Q9H2K2 646-800 limits assumed): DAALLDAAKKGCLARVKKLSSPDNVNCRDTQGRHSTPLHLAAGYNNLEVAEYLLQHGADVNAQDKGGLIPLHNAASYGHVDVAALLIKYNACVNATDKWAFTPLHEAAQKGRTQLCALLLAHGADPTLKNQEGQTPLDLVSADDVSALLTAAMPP
# Text: FRET displacement of YFP-REAGDGEE peptide from CFP-ARC on TNKS2 ARC5
# TNKS2 ARC1 = target: T8, TNKS2 ARC1 (Homo sapiens, UniProt Q9H2K2); assay: as above; format: binding
# T8 construct: ankyrin repeat cluster 1 domain, 6xHis-mCerulean (CFP) fusion, E. coli
# T8 sequence (Q9H2K2 21-174 limits assumed): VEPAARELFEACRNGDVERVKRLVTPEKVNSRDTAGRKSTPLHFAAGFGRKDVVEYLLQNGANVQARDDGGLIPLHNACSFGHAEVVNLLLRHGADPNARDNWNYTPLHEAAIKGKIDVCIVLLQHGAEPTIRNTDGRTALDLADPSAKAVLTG
# Text: FRET displacement of YFP-REAGDGEE peptide from CFP-ARC on TNKS2 ARC1
IC50 (TNKS1 ARC2-3) [µM],IC50 (TNKS2 ARC2) [µM],IC50 (TNKS1 ARC1) [µM],IC50 (TNKS1 ARC5) [µM],IC50 (TNKS1 ARC4) [µM],ΔTm ± SD (°C) (TNKS2 ARC4 [2]),IC50 (TNKS2 ARC4 [3]) [µM],IC50 (TNKS2 ARC5) [µM],IC50 (TNKS2 ARC1) [µM],SMILES,X-ray co-crystal structure (TNKS2 ARC4 [1])
> 1000,> 1000,> 1000,> 1000,9,2.44 ± 0.12,–,–,–,CCC(CC)CCCN1C(=O)C(O)=C(C(=O)c2ccc3c(c2)OCCO3)[C@@H]1c1ccc(O)cc1 [S8],we co-crystallized the compound displaying the best potency (S8) with TNKS2 ARC4
> 1000,> 1000,> 1000,> 1000,18,–,16,> 1000,> 1000,"CCN(CC)CCCN1C(=O)C(O)=C(C(=O)c2ccc3c(c2)OCCO3)C1c1ccc(O)cc1 (stereo not drawn) [compound 1, 1]",–
> 1000,> 1000,> 1000,> 1000,121,2.19 ± 0.31,77,> 1000,> 1000,"Cc1ccc(C2C(C(=O)c3ccc4c(c3)OCCO4)=C(O)C(=O)N2CCCN2CCOCC2)cc1 (stereo not drawn) [compound 4, 4]",–
> 1000,> 1000,> 1000,> 1000,123,1.81 ± 0.31,82,> 1000,> 1000,"COc1ccc(C2C(C(=O)c3ccc4c(c3)OCCO4)=C(O)C(=O)N2CCCN2CCOCC2)cc1 (stereo not drawn) [compound 6, 6]",–
